Assay results reported in paper PMC8623418, “Novel Multitarget Hydroxamic Acids with a Natural Origin CAP Group against Alzheimer’s Disease: Synthesis, Docking and Biological Evaluation” (Pharmaceutics, 2021).

Legend:
5xFAD transgenic mice = test: Morris Water Maze Test in 5xFAD mice; format: in vivo; settings: for Mean latency time to hidden platform, first training day / Mean latency time to hidden platform, fourth training day: 15 mg/kg i.p. for 20 days, mean ± SEM; for Mean latency time to hidden platform, first training day: day 1; for Mean latency time to hidden platform, fourth training day: day 4
Method: All animal procedures were approved by the Animal Care and Use Committee of IPAC RAS. For in vivo studies, 11-month-old male mice of the 5xFAD line (Tg(APPSwFlLon,PSEN1*M146L*L286V) 6799Vas/J) were used. The animals were housed in cages with free access to water and food in a room with a 12 h/12 h light–dark cycle, at a temperature of 23 ± 1 °C and humidity of 50 ± 5%. Before the series of experiments, animals were randomly divided into four groups (n = 8 per group): (1) wild-type group (C57BL6/j mouse line); (2) 5xFAD group; (3) 5xFAD + 15 group; and (4) 5xFAD + 25 group. Both compounds 15 and 25 were dissolved in saline solution and DMSO (10%) immediately before use and intraperitoneally administered to animals for 20 days at a dose of 15 mg/kg body weight for experiments. In the control group, the vehicle solution (saline and DMSO (10%), intraperitoneal) was administered with the same time schedule. The Morris Water Maze Test was performed based on the Morris paradigm, 1985, modified. This test allowed us to evaluate spatial learning and memory formation in mice. The experimental apparatus consisted of a circular pool (diameter, 150 cm; height, 60 cm; OpenScience, Russia) containing water at 22 ± 1 °C. The lighting conditions were as follows: dark side of the pool was 50 lx; bright side was 75 lx. The pool was equally divided into quadrants. A platform (diameter, 10 cm) was positioned inside the reservoir, placed 1 cm below the water surface in the target quadrant of the maze. The platform and pool were white with anti-glare coating, which, together with shadowless lamp lighting, created the effect of an invisible platform that was hidden under the water. As visual cues, we used 4 figures (OpenScience, Moscow, Russia) fixed on the racks and located at the pool sides. The test is based on two phases: the acquisition phase (training days) and the retention phase (probe trial) (Figure 7A). Initially, the training session was performed, during which each animal was placed into the water facing the pool wall. After placing, each animal was given 60 s to find and mount onto the hidden platform. […] Each mouse received training sessions, and the test was repeated four times for four consecutive days in acquisition training (sum 16 trials for training). All 4 start positions for each day (north, south, east, west) were deliberately randomized. The probe trial was performed on the 5th day after the training phase: there were no platform and the mice were given 90 s for swimming. The criteria for the effectiveness of learning and memory formation were the time spent in the target and wrong quadrants, the latency period, and the number of entries to the platform area.

β-amyloid 1–40 = β-amyloid 1–40 aggregation, Thioflavin T fluorescence; format: biochemical; settings: 100 μM, 72 h incubation
Method: The effect of the studied compounds on the aggregation of β-amyloid (1–40/1–42) was analyzed using the method of recording Thioflavin T fluorescence (10 µM) for 72 h at 37 °C. The fluorescence signal was measured using a multifunctional flatbed analyzer, the Cytation ™ 3 (BioTek Instruments, Inc., Winooski, VT, USA), at λex = 450 nm, λem = 480 nm.
The effect of hydroxamic acids on the stage of aggregation of the pathological β-amyloid peptide was investigated for 72 h using two model systems—fragments Aβ1–40 and Aβ1–42. The fluorophore Thioflavin T was used as an indicator of the ongoing fibrillation process, the interaction of which with proteins in the state of amyloid fibrils leads to an increase in the fluorescence signal.

[1] = system: lipid peroxidation (LPO) of rat brain homogenate; test: Lipid peroxidation (LPO) of rat brain homogenate, TBARS test; format: biochemical; settings: substances at 100 μM, mean ± SEM; for % of Activity, Inhibition of LPO, Fe (II): Fe (II)-induced; for % of Activity, Inhibition of LPO, t-BHP: t-BHP-induced
Method: To obtain the brain homogenate, rats preliminarily anesthetized with CO2 were decapitated with a guillotine. The brain was homogenized in a buffer containing KCl (120 mM) and HEPES (20 mM), pH = 7.4 at 4 °C, and centrifuged at 1500 rpm to obtain a supernatant. The protein was quantified according to the standard microbiuret method.
To investigate the effect of the compounds on lipid peroxidation (LPO) of rat brain homogenate, we used the modified version of the TBARS test, which is based on the reaction of 2-thiobarbituric acid with the end LPO product—malonic dialdehyde (MDA). The plate well, according to the experimental scheme, contained the compounds under study (100 μM), rat brain homogenate (2 mg/mL), as well as ferrous iron ions ([…]) at a concentration of 500 μM and 1.6 mM tert-butyl hydroxyperoxide as an initiator. After 30 min of incubation at 37 °C, TBARS reagent was added to all samples, incubated for 90 min at 90 °C, and centrifuged at 6000 rpm for 15 min. The optical density of the selected supernatant was measured on a Victor 3 plate reader (Perkin Elmer) at λ = 540 nm.
A rat brain homogenate preparation containing fragments of cell membranes was used as a model system to investigate the antioxidant activity of the hydroxamic acids. To initiate the process of lipid peroxidation, ferrous ions were used to trigger the Fenton reaction, during which the iron valence changes and a highly reactive hydroxyl radical is formed, and tert-butyl hydroxyperoxide as a direct source of free radicals.

SH-SY5Y cells = test: MTT cell viability, SH-SY5Y; format: cell-based; settings: Homo sapiens, MTT test
Method: (§1) The effect of the hydroxamic acids on the viability of cells obtained from human embryonic kidneys, HEK 293, as well as the native form of human neuroblastoma, SH-SY5Y, was evaluated in the MTT test. Using a multifunctional flatbed analyzer, Cytation™3 (BioTek Instruments, Inc., Winooski, VT, USA), the optical density was determined at a wavelength of 530 nm. Based on the dose-dependent curves, the concentration values leading to 50% inhibition of cell population growth (IC50) were calculated.
(§2) Due to the fact that most compounds of the class of hydroxamic acids have high cytotoxic activity and are mainly used as anticancer drugs, their use as neuroprotective drugs is limited. Since the goal of our work was to search for agents for the pharmacological correction of neurodegenerative diseases, a necessary part of the biological activity study of the synthesized hydroxamic acids was to determine their effect on the survival of cell cultures. In our work, we used neuron-like neuroblastoma cells SH-SY5Y and a healthy cell line isolated from the human embryonic kidney, HEK 293.

HEK 293 cells = test: MTT cell viability, HEK 293; format: cell-based; settings: Homo sapiens, HEK293; HEK-293, MTT test
Method: as §1, §2

[2] = 5th day, versus untreated 5xFAD

Structure (SMILES) | Mean latency time to hidden platform, first training day (5xFAD transgenic mice) | Mean latency time to hidden platform, fourth training day (5xFAD transgenic mice) | Probe trial: entries to the platform zone (5xFAD transgenic mice; [2]) | Probe trial: latency for entering the platform zone (5xFAD transgenic mice; [2]) | Probe trial: time spent in the wrong quadrant (5xFAD transgenic mice; [2]) | Effect on β-amyloid 1–40 aggregation (β-amyloid 1–40) | % of Activity, Inhibition of LPO, Fe (II) [1] | % of Activity, Inhibition of LPO, t-BHP [1] | IC50 (SH-SY5Y cells) | IC50 (HEK 293 cells) | Platform search strategies (egocentric to allocentric navigation) (5xFAD transgenic mice; training phase, 15 mg/kg i.p.)
O=C(/C=C/c1ccc(C(=O)NO)cc1)NC1C2CC3CC(C2)CC1C3 (centres unmarked) [compound 25, 4-((E)-3-((-Adamantan-2-yl)amino)-3-Oxoprop-1-en-1-yl)-N-Hydroxybenzamide] | 53.46 ± 2.75 s | 38.63 ± 3.01 s | improvement in these spatial memory parameters was also observed | improvement in these spatial memory parameters was also observed | significant differences were found in the time spent in the wrong quadrant | noticeable fibrillation inhibition | 19.81 ± 4.83% | 44.59 ± 1.73% | 59.51 ± 0.42 µM | > 100 µM | 
O=C(CCCCCCC(=O)NC1C2CC3CC(C2)CC1C3)NO (centres unmarked) [compound 15, N^1-(Adamant-2-yl)-N^8-Hydroxyoctanediamide] | 53.76 ± 2.79 s | 34.28 ± 4.32 s | increased entries to the platform | significantly reduced the latency for entering the platform zone |  | noticeable fibrillation inhibition | 21.52 ± 2.15% | 43.24 ± 1.28% | 47.6 ± 7.19 µM | > 100 µM | normalization of this situation and the successful formation of the allocentric cognitive map
